Results published in patent US9006228B2 (Merck Sharp & Dohme Corp., priority 2011, dated 2015).

Target: T1, human GPR119 (Homo sapiens, UniProt Q8TDV5)
T1 sequence (Q8TDV5 1-308 limits assumed): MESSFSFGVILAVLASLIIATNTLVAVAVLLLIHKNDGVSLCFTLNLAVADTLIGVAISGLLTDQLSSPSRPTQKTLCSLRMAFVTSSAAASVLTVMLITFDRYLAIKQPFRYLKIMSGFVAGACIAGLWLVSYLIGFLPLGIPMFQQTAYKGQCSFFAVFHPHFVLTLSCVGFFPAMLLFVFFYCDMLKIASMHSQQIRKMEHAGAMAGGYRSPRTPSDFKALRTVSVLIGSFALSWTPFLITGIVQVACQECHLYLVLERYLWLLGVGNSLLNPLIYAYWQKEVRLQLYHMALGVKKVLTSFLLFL
Assay: Measurement of GPR119 signaling (cAMP assay; LANCE kit or HTRF) in HEK293 cells stably transfected with human GPR119
Format: cell-based
Conditions: agonist-stimulated cAMP in HEK293 cells expressing human GPR119
Procedure: Measurement of GPR119 Signaling Using LANCE 384-Well cAMP Kit
The adenylate cyclase assay was constructed following the LANCE™ cAMP Kit (Perkin Elmer, AD0264) instructions. […] The reaction was stopped by incubating with the supplied detection buffer containing the europium chelate of the Eu-SA/Biotin-cAMP tracer for 3 hours. The assay was performed in duplicate in a 384 well plate for duplicate plates. Fluorescence at 665 nm was measured using a PHERAstar instrument. Basal activity was determined using a DMSO control and maximum response was defined as cAMP stimulation produced by an internal agonist control. Standard cAMP concentrations were assayed concurrently for conversion of fluorescence signal to cAMP level. The data was analyzed using 4-parameter curve fit in Microsoft Excel.
Measurement of GPR119 Signaling Using a Cyclic AMP (cAMP) Homogenous Time Resolved Fluorescence (HTRF) Assay
Chinese hamster ovary (CHO) cell lines stably transfected with the permissive guanine nucleotide binding protein alpha 15 (Gα15) and murine GPR119 were maintained in DMEM media containing FBS, penicillin-streptomycin, puromycin, and G418 (geneticin). […] Agonist activation of the GPR119 receptor was measured in receptor transfected cells described above, treated with compounds of this invention, using a commercial homogenous time resolved fluorescence (HTRF) kit for measurement of cAMP (CisBio, Bedford, Mass.). The assay was performed in 96-well half-volume plates (murine) or 384-well plates (human) following the manufacturers instructions. Briefly, suspended cells were incubated with a dose titration of test compound at RT for 60 min, lysed, and incubated with HTRF reagents for an additional 60 min. The plate was read using an Envision multilabel reader (Perkin Elmer) adjusted to read time resolved fluorescence and the cAMP concentrations were extrapolated from a cAMP calibration curve. […] The concentration of test compound required to stimulate a half-maximal response (EC50), and efficacy as compared to an internal agonist control, was determined from a sigmoidal 4-parameter curve fit of the resulting plot of normalized activity versus compound concentration.

SMILES	EC50
CCc1cnc(N2CCC([C@H]3C[C@H]3COCc3ccc(-c4ncco4)cc3)CC2)nc1 [Example 54, 5-ethyl-2-{4-[(1R,2R)-2-({[4-(1,3-oxazol-2-yl)benzyl]oxy}methyl)cyclopropyl]piperidin-1-yl}pyrimidine]	12 nM
CC(C)OC(=O)N1CCC([C@H]2C[C@H]2COCc2ccc(S(C)(=O)=O)c(F)c2)CC1 [Example 42, isopropyl 4-[(1R,2R)-2-({[3-fluoro-4-(methylsulfonyl)benzyl]oxy}methyl)cyclopropyl]piperidine-1-carboxylate]	8.5 nM
CS(=O)(=O)c1ccc(COC[C@@H]2C[C@@H]2C2CCN(c3ncc(C=O)cn3)CC2)c(F)c1 [Example 71, 2-{4-[(1R,2R)-2-({[2-fluoro-4-(methylsulfonyl)benzyl]oxy}methyl)cyclopropyl]piperidin-1-yl} pyrimidine-5-carbaldehyde]	13.6 nM
CS(=O)(=O)c1ccc(COC[C@@H]2C[C@@H]2C2CCN(c3ncc(Cl)cn3)CC2)nc1 [Example 1, 5-chloro-2-{4-[(1R,2R)-2-({[5-(methylsulfonyl)pyridin-2-yl]methoxy}methyl)cyclopropyl]piperidin-1-yl}pyrimidine]	8.7 nM
CCc1cnc(N2CCC([C@H]3C[C@H]3COCc3ccc(-c4cnc(N)nc4)c(F)c3)CC2)nc1 [Example 118, 5-{4-[({(1R,2R)-2-[1-(5-ethylpyrimidin-2-yl)piperidin-4-yl]cyclopropyl}methoxy)methyl]-2-fluorophenyl}pyrimidin-2-amine]	5.9 nM
Cc1cnc(N2CCC([C@H]3C[C@H]3COCc3ccc(S(C)(=O)=O)cn3)CC2)nc1 [Example 2, 5-methyl-2-{4-[(1R,2R)-2-({[5-(methylsulfonyl)pyridin-2-yl]methoxy}methyl)cyclopropyl]piperidin-1-yl}pyrimidine]	10.8 nM
CCc1cnc(N2CCC([C@H]3C[C@H]3COCc3ccc(S(=O)(=O)CCO)cc3F)CC2)nc1 [Example 83]	21 nM
O=S(=O)(CCO)c1ccc(COC[C@@H]2C[C@@H]2C2CCN(c3ncc(C4CC4)cn3)CC2)nc1 [Example 90, 2-({6-[({(1R,2R)-2-[1-(5-cyclopropylpyrimidin-2-yl)piperidin-4-yl]cyclopropyl}methoxy)methyl]pyridin-3-yl}sulfonyl)ethanol]	23 nM
COc1cnc(N2CCC([C@H]3C[C@H]3COCc3ccc(S(C)(=O)=O)cn3)CC2)nc1 [Example 6, 5-methoxy-2-{4-[(1R,2R)-2-({[5-(methylsulfonyl)pyridin-2-yl]methoxy}methyl)cyclopropyl]piperidin-1-yl}pyrimidine]	15 nM
CC1(OC(=O)N2CCC([C@H]3C[C@H]3COCc3cc(F)c(S(C)(=O)=O)c(F)c3)CC2)CC1 [Example 49, 1-methylcyclopropyl 4-[(1R,2R)-2-({[3,5-difluoro-4-(methylsulfonyl)benzyl]oxy}methyl)cyclopropyl] piperidine-1-carboxylate]	11.7 nM
COCc1noc(N2CCC([C@H]3C[C@H]3COCc3ccc(-n4cnnn4)cc3F)CC2)n1 [Example 135, 5-(4-((1R,2R)-2-((2-fluoro-4-(1H-tetrazol-1-yl)benzyloxy)methyl)cyclopropyl)piperidin-1-yl)-3-(methoxymethyl)-1,2,4-oxadiazole]	9.8 nM
CC(C)(C)OC(=O)N1CCC([C@H]2C[C@H]2COCc2ccc(S(=O)(=O)CCO)cc2F)CC1 [Example 79, tert-butyl 4-{(1R,2R)-2-[({2-fluoro-4-[(2-hydroxyethyl)sulfonyl]benzyl}oxy)methyl]cyclopropyl}piperidine-1-carboxylate]	7.1 nM
CC(C)c1noc(N2CCC([C@H]3C[C@H]3COCc3ccc(S(C)(=O)=O)cc3F)CC2)n1 [Example 78, 4-[(1R,2R)-2-({[2-fluoro-4-(methylsulfonyl)benzyl]oxy}methyl)cyclopropyl 1]-1-(3-isopropyl-1,2,4-oxadiazol-5-yl)piperidine]	4.9 nM
COCc1cnc(N2CCC([C@H]3C[C@H]3COCc3ccc(CC(=O)N4CCOCC4)cc3F)CC2)nc1 [Example 146, 2-(3-fluoro-4-((((1R,2R)-2-(1-(5-(methoxymethyl)pyrimidin-2-yl)piperidin-4-yl)cyclopropyl)methoxy)methyl)phenyl)-1-morpholinoethanone]	3.23 nM

Compounds with a lower EC50, results first:

EC50	SMILES
2.3 nM	CCc1cnc(N2CCC([C@H]3C[C@H]3COCc3ccc(-c4cnccn4)cc3F)CC2)nc1 [Example 109, 2-{4-[({(1R,2R)-2-[1-(5-ethylpyrimidin-2-yl)piperidin-4-yl]cyclopropyl}methoxy)methyl]-3-fluorophenyl}pyrazine]
0.2 nM	CC(C)c1noc(N2CCC([C@H]3C[C@H]3COCc3ccc(S(C)(=O)=O)c(F)c3)CC2)n1 [Example 35, 4-[(1R,2R)-2-({[3-fluoro-4-(methylsulfonyl)benzyl]oxy}methyl)cyclopropyl]-1-(3-isopropyl-1,2,4-oxadiazol-5-yl)piperidine]
0.6 nM	CS(=O)(=O)c1ccc(COC[C@@H]2C[C@@H]2C2CCN(c3nc(C4CC4)no3)CC2)cc1F [Example 37, 1-(3-cyclopropyl-1,2,4-oxadiazol-5-yl)-4-[(1R,2R)-2-({[3-fluoro-4-(methylsulfonyl)benzyl]oxy}methyl)cyclopropyl]piperidine]
2.4 nM	CC(O)CS(=O)(=O)c1ccc(COC[C@@H]2C[C@@H]2C2CCN(c3ncc(Cl)cn3)CC2)c(F)c1 (stereo partly drawn) [Example 95, 1-({4-[({(1R,2R)-2-[1-(5-chloropyrimidin-2-yl)piperidin-4-yl]cyclopropyll}methoxy)methyl]-3-fluorophenyl}sulfonyl)propan-2-ol]
1.6 nM	CCc1cnc(N2CCC([C@H]3C[C@H]3COCc3ccc(C[C@H](C)O)cc3)CC2)nc1 [Example 59, (2S)-1-{4-[({(1R,2R)-2-[1-(5-ethylpyrimidin-2-yl)piperidin-4-yl]cyclopropyl}methoxy)methyl]phenyl}propan-2-ol]
1.6 nM	COCc1cnc(N2CCC([C@H]3C[C@H]3COCc3ccc(S(C)(=O)=O)cc3F)CC2)nc1 [Example 77, 2-{4-[(1R,2R)-2-({[2-fluoro-4-(methylsulfonyl)benzyl]oxy}methyl)cyclopropyl]piperidin-1-yl}-5-(methoxymethyl)pyrimidine]
0.89 nM	CC(C)c1noc(N2CCC([C@H]3C[C@H]3COCc3ccc(CC(=O)N4CC(F)C4)cc3F)CC2)n1 [Example 139, 2-(3-fluoro-4-((((1R,2R)-2-(1-(3-isopropyl-1,2,4-oxadiazol-5-yl)piperidin-4-yl)cyclopropyl)methoxy)methyl)phenyl)-1-(3-fluoroazetidin-1-yl)ethanone]
1.6 nM	Cc1cnc(N2CCC([C@H]3C[C@H]3COCc3ccc(S(C)(=O)=O)cc3)CC2)nc1 [Example 21, 5-methyl-2-{4-[(1R,2R)-2-({[4-(methylsulfonyl)benzyl]oxy}methyl)cyclopropyl]piperidin-1-yl}pyrimidine]
1.1 nM	CC(C)(C)OC(=O)N1CCC([C@H]2C[C@H]2COCc2ccc(S(C)(=O)=O)c(F)c2)CC1 [Example 33, tert-butyl 4-[(1R,2R)-2-({[3-fluoro-4-(methylsulfonyl)benzyl]oxy}methyl)cyclopropyl]piperidine-1-carboxylate]
